One test has as its target T1, BRPF1 (Homo sapiens, UniProt P55201).
T1 sequence (P55201 628-732 limits assumed): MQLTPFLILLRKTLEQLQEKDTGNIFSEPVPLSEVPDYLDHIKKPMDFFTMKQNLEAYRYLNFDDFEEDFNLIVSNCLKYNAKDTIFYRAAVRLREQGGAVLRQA
Put plainly: BROMOscan ligand-binding assay. The following applies: KD, BROMOscan Gene Symbol BRPF1.

The target of a further test is T2, ATAD2A (Homo sapiens, UniProt Q6PL18).
T2 sequence (Q6PL18 980-1092 limits assumed): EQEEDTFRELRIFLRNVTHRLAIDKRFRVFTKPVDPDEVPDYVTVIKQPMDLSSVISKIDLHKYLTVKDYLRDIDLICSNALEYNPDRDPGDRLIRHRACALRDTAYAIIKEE
Put plainly: BROMOscan ligand-binding assay. The following applies: KD, BROMOscan Gene Symbol ATAD2A.

The target of a further test is T3, ATAD2B (Homo sapiens, UniProt Q9ULI0).
T3 sequence (Q9ULI0 951-1066 limits assumed): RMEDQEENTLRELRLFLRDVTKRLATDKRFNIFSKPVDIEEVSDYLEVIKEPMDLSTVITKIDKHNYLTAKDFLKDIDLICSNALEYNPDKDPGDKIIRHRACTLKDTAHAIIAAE
Put plainly: BROMOscan ligand-binding assay. The following applies: KD, BROMOscan Gene Symbol ATAD2B.

The next test relates to C2C12 myoblast cells. Put plainly: Gene-expression analysis (microarray). Format: cell-based, mouse. The following applies: 12 h; 500 nM (JQ1, LP-99), 2 μM (GSK2801, BAZ2-ICR, BSP). Here is the method:
Total RNA was extracted using the PureLink^TM RNA mini kit (Thermo Fisher Scientific, 12183018A) as per the manufacturer’s protocol.
RNA samples were processed for oligonucleotide microarray profiling utilizing the Affymetrix Clariom^TM S Assay HT mouse. Quality controls were carried out in R (v.3.5.1) and Bioconductor[71] (v.3.7) using the arrayQualityMetrics package (v.3.36.0) taking into account array intensity distributions, distance between arrays, and variance mean dependence. Principal component analysis was used to decide which arrays to process together. After quality control, arrays were corrected for background, normalized, and log2-transformed together using the rma function of the oligo package (v.1.44)[73] in R/Bioconductor. Probes with small variance across samples were filtered out using the genefilter (v.1.62) package, employing the nsFilter function and an interquartile range cut-off of 0.28 (or >log(1.2), determined by the midpoint of the shortest interval containing half of the data). This reduced the number of probes of the Clariom^TM S array from 29,129 to 14,538.
Differential expression analysis was conducted using the limma package (v.3.36.2)[74], employing a linear model followed by empirical Bayesian analysis to determine differential expression between not-treated and treated samples.

For a further test, the target named is BRD8(2) (Homo sapiens, UniProt Q9H0E9). Nature of the test: BROMOscan ligand-binding assay. The following applies: KD, BROMOscan Gene Symbol BRD8(2).
Another test has as its target BRD8(1) (Homo sapiens, UniProt Q9H0E9). Put plainly: BROMOscan ligand-binding assay. The following applies: KD, BROMOscan Gene Symbol BRD8(1).
In another test the target is T4, EP300 (Homo sapiens, UniProt Q09472).
T4 sequence (Q09472 1049-1156 limits assumed): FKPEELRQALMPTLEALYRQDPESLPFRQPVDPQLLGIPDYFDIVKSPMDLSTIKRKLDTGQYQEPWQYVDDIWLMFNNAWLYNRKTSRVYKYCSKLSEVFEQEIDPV
Nature of the test: BROMOscan ligand-binding assay. The following applies: KD, BROMOscan Gene Symbol EP300.

The target in another test is T5, TRIM33(PHD,BRD) (Homo sapiens, UniProt Q9UPN9).
T5 sequence (Q9UPN9 882-1087 limits assumed): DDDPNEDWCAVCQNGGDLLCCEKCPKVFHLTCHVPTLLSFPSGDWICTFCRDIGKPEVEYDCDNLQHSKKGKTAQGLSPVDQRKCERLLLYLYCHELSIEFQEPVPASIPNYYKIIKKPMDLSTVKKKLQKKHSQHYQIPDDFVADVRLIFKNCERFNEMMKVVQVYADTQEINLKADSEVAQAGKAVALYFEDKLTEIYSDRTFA
Put plainly: BROMOscan ligand-binding assay.

The next test has as its target T6, BAZ2B (Homo sapiens, UniProt Q9UIF8).
T6 sequence (Q9UIF8 2060-2164 limits assumed): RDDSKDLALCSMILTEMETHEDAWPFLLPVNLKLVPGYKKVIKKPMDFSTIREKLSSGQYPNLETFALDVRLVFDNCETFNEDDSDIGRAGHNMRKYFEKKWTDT
Nature of the test: BROMOscan ligand-binding assay. The following applies: KD, BROMOscan Gene Symbol BAZ2B.

The target of the next test is WDR9(2) (Homo sapiens, UniProt Q9NSI6). Nature of the test: BROMOscan ligand-binding assay.
The next test deals with SMARCA2 (Homo sapiens, UniProt P51531). Put plainly: BROMOscan ligand-binding assay. The following applies: KD, BROMOscan Gene Symbol SMARCA2.
Another test concerns the target T7, BAZ1B (Homo sapiens, UniProt Q9UIG0).
T7 sequence (Q9UIG0 1339-1443 limits assumed): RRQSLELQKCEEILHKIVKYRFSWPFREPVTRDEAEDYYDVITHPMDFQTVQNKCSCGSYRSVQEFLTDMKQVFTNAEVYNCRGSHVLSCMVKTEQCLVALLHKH
Nature of the test: BROMOscan ligand-binding assay. The following applies: KD, BROMOscan Gene Symbol BAZ1B.

A further test deals with T8, CBP (Homo sapiens, UniProt Q92793).
T8 construct: Recombinant protein domains (bromodomain or kinases) at a concentration of 2 μM
Put plainly: Temperature shift assay (bromodomains). Type of test: binding. The following applies: compared to ITC KD. Here is the method:
(§1) Temperature shift assays have been described by Fedorov et al.[46]. Recombinant protein domains (bromodomain or kinases) at a concentration of 2 μM in 10 mM HEPES, pH 7.5, and 500 mM NaCl were mixed with 10 μM of chemical probes. Temperature-dependent protein unfolding profiles were measured using a Real-Time PCR Mx3005p machine (Stratagene).

A further test addresses T9, TAF1L(2) (Homo sapiens, UniProt Q8IZX4).
T9 construct: purchased DiscoverX BROMOscan (bromodomains); SGC in-house methyltransferase panel
Put plainly: Temperature shift assay (bromodomains). Type of test: binding. The following applies: compared to ITC KD. Here is the method:
as §1

The target in the next test is T10, BRD9 (Homo sapiens, UniProt Q9H8M2).
T10 construct: purchased DiscoverX BROMOscan (bromodomains); SGC in-house methyltransferase panel
Put plainly: Temperature shift assay (bromodomains). Format: binding. The following applies: compared to ITC KD. How it is done:
as §1

The target of a further test is T11, GCN5L2 (Homo sapiens, UniProt Q92830).
T11 sequence (Q92830 728-832 limits assumed): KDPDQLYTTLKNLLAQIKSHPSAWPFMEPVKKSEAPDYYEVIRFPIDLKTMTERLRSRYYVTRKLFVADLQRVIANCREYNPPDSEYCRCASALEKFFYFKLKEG
Put plainly: BROMOscan ligand-binding assay. The following applies: KD, BROMOscan Gene Symbol GCN5L2.

The next test deals with SMARCA2(iso.A) (Homo sapiens, UniProt P51531). Put plainly: BROMOscan ligand-binding assay. The following applies: KD, BROMOscan Gene Symbol SMARCA2(iso.A).
The mark [1] stands for this setting: KD (BROMOscan), sheet prints no unit (nM).

WDR9(2), sequence (Q9NSI6 1313-1418 limits assumed): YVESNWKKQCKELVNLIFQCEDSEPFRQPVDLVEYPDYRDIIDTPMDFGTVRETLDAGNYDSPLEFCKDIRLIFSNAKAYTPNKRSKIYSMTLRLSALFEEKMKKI
SMARCA2, sequence (P51531 1-1572 isoform P51531-2): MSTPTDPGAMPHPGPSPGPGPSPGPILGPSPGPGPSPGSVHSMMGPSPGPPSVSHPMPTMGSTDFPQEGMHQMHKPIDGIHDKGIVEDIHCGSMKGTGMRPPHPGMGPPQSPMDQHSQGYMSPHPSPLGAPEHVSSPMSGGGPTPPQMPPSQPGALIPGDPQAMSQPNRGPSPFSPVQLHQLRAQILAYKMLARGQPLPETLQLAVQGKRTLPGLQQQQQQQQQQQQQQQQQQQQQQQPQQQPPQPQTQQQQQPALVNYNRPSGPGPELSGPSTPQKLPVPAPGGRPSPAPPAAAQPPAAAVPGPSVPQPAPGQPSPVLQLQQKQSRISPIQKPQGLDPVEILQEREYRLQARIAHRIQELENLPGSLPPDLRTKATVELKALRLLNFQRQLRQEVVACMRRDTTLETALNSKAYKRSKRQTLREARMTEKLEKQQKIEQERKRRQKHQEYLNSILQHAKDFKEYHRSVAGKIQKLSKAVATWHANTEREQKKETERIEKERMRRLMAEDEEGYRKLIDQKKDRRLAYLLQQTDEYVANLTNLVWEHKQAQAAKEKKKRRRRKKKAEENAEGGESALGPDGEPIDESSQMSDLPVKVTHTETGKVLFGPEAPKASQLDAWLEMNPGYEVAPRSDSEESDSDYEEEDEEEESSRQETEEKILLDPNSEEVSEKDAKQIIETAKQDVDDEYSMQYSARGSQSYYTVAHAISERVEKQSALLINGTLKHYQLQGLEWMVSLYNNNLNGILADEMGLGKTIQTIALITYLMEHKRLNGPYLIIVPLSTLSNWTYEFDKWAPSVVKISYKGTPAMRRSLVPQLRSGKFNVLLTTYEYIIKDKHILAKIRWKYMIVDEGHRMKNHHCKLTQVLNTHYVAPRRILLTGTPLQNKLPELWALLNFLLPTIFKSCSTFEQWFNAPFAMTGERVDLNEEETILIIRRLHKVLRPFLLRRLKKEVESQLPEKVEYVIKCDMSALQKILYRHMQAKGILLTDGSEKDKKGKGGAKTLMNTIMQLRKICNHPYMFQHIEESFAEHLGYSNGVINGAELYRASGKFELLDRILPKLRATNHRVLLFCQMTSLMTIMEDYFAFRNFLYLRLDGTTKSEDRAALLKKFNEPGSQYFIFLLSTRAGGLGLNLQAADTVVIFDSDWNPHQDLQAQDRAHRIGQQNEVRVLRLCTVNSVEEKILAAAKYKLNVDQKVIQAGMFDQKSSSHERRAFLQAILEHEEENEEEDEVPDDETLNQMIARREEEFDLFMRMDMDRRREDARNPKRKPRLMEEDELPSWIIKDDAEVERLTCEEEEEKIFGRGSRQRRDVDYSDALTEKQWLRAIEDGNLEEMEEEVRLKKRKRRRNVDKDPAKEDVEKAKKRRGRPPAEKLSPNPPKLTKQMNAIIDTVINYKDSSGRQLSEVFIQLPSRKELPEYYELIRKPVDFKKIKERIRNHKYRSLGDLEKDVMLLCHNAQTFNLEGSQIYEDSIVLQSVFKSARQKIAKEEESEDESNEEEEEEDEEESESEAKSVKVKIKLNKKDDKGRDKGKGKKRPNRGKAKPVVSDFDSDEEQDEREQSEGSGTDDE
BRD8(1), sequence (Q9H0E9 706-811 limits assumed): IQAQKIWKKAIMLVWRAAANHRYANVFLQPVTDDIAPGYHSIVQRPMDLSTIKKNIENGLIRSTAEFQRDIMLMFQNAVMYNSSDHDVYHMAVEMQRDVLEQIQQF
T10 sequence (Q9H8M2 134-239): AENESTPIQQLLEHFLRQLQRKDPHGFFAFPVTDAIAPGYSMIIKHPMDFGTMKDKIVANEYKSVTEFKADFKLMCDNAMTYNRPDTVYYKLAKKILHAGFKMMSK
T9 sequence (Q8IZX4 1523-1654 limits assumed): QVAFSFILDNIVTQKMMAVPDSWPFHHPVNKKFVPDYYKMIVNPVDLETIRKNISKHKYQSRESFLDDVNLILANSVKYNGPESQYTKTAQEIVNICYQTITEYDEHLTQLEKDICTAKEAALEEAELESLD
BRD8(2), sequence (Q9H0E9 1099-1207 limits assumed): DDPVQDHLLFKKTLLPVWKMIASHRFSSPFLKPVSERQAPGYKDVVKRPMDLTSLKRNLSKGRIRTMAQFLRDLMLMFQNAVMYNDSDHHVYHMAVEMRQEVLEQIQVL
SMARCA2(iso.A), sequence (P51531 1378-1506 limits assumed): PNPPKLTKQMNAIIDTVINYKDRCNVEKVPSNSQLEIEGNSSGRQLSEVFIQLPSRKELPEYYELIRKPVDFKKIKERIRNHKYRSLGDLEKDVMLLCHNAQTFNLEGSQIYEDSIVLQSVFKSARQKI
T8 sequence (Q92793 1085-1192 limits assumed): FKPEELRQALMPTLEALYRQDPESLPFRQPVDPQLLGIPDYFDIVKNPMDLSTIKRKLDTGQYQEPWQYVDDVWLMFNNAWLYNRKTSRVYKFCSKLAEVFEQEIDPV
Source text for ATAD2A: (§2) BROMOscan is a binding assay based on the well-known KINOMEscan technology. This assay measures the binding of a DNA-tagged bromodomain to an immobilized BRD ligand. If an inhibitor is present, it will compete with the bromodomain binding to the immobilized ligand, resulting in reduction of a quantitative PCR (qPCR) signal in a dose-dependent manner.
Source text for ATAD2B: as §2
Source text for BAZ1B: as §2
Source text for BAZ2B: as §2
Source text for BRD8(1): as §2
Source text for BRD8(2): as §2
Source text for BRPF1: as §2
Source text for EP300: as §2
Source text for GCN5L2: as §2
Source text for SMARCA2(iso.A): as §2
Source text for TRIM33(PHD,BRD): as §2
Source text for WDR9(2): as §2

Broadly, the Kd is the concentration at which binding is half-saturated. Read a high Kd as lower affinity. Consider `CCOC(=O)Nc1cc(-c2ccc(C)c(NS(C)(=O)=O)c2)nn2c(C)nnc12` [Bromosporine], for which the Kd on BRPF1 was 0.6 µM; at ATAD2A it was 62 µM; on ATAD2B it was 30 µM; at BRD8(2), 40 µM; at BRD8(1), 28 µM; on EP300, 1.6 µM. In addition, the dissociation constant Kd on TRIM33(PHD,BRD) (setting [1]) is more than 30000 nM; at TRIM33(PHD,BRD) (KD, BROMOscan Gene Symbol TRIM33(PHD,Bromo.)) it was more than 50000 nM; at BAZ2B, 9.1 µM; on WDR9(2) (setting [1]) it was more than 30000 nM; at WDR9(2) (KD, BROMOscan Gene Symbol WDR9(2)) it was more than 50000 nM; at SMARCA2, 4.6 µM. For the same compound, the Kd at BAZ1B worked out at 38 µM; on GCN5L2 it was 12 µM; at SMARCA2(iso.A), 6.2 µM. In addition, the “changes in gene-expression levels” value in the test on C2C12 myoblast cells is listed as “significant changes in gene-expression levels”. In addition, the ΔTm result on CBP is listed as “relatively large ΔTm”; on TAF1L(2) it was “only modest ΔTm”; at BRD9 it was “only modest ΔTm”.

The values above are taken from PMC6478789, “A chemical toolbox for the study of bromodomains and epigenetic signaling” (Nature Communications, 2019).
